Settings: Liquid, isochoric method

CCC [propane]
Settings	mass density [kg/m3]
207.35 K, 1466.9 kPa	609.37
208.31 K, 2745.8 kPa	609.32
209.06 K, 3635.6 kPa	609.28
209.75 K, 4364.7 kPa	609.25
215.17 K, 10724 kPa	608.98
222.43 K, 1045.6 kPa	592.03
222.75 K, 19646 kPa	608.63
223.37 K, 2016.7 kPa	591.98
224.52 K, 3087.1 kPa	591.93
225.47 K, 4153.8 kPa	591.89
226.91 K, 5632.5 kPa	591.82
231.06 K, 30008 kPa	608.23
231.07 K, 10051 kPa	591.62
239.51 K, 39217 kPa	607.87
240.49 K, 1194 kPa	571.45
240.67 K, 19671 kPa	591.21
240.92 K, 1528.8 kPa	571.44
242.87 K, 3265.5 kPa	571.39
244.55 K, 4758.9 kPa	571.35
245.44 K, 5554 kPa	571.33
250.1 K, 9711.4 kPa	571.2
250.12 K, 29984 kPa	590.79
251.11 K, 51133 kPa	607.38
259.96 K, 1060.8 kPa	547.54
261.06 K, 19770 kPa	571.13
261.18 K, 40016 kPa	590.35
261.19 K, 1975 kPa	547.51
262.52 K, 2951.9 kPa	547.48
262.52 K, 3059.7 kPa	547.47
263.78 K, 4004 kPa	547.44
265.28 K, 5120.2 kPa	547.4
266.44 K, 5840.1 kPa	547.37
267.87 K, 6954.7 kPa	547.34
270.11 K, 49092 kPa	589.98
270.22 K, 1044.7 kPa	533.77
271.68 K, 2041.5 kPa	533.71
272.12 K, 10829 kPa	547.66
272.12 K, 30057 kPa	570.94
272.13 K, 10235 kPa	547.22
273.11 K, 3025.3 kPa	533.66
274.51 K, 3979.1 kPa	533.61
276.2 K, 5186.1 kPa	533.54
283.08 K, 995.2 kPa	515.52
283.43 K, 38987 kPa	570.26
283.64 K, 10260 kPa	533.26
284.77 K, 2002.1 kPa	515.46
284.98 K, 19876 kPa	546.88
286.56 K, 3090.5 kPa	515.39
288.23 K, 4086.1 kPa	515.33
289.9 K, 5086.2 kPa	515.27
295.92 K, 49573 kPa	569.78
297.68 K, 1075 kPa	493.21
298.14 K, 10031 kPa	514.99
298.15 K, 10038 kPa	514.99
298.15 K, 19981 kPa	532.71
298.15 K, 30027 kPa	546.51
298.15 K, 30100 kPa	546.7
298.18 K, 19921 kPa	532.75
298.19 K, 20084 kPa	532.74
299.62 K, 2037.9 kPa	493.14
301.57 K, 3036.9 kPa	493.08
303.56 K, 4053.8 kPa	493.01
305.53 K, 5060.2 kPa	492.95
311.44 K, 39238 kPa	545.97
313.68 K, 30193 kPa	532.17
315.23 K, 2005.2 kPa	466.11
315.23 K, 9905.5 kPa	492.64
315.23 K, 10017 kPa	492.63
315.23 K, 19842 kPa	514.41
317.42 K, 2930.2 kPa	466.04
319.89 K, 3981.7 kPa	465.97
322.25 K, 4976.5 kPa	465.9
332.01 K, 29682 kPa	513.86
333.97 K, 19538 kPa	492.04
334.14 K, 9861.6 kPa	465.55
344.57 K, 49972 kPa	531.11
353.14 K, 29253 kPa	491.45
353.14 K, 42004 kPa	513.17
353.15 K, 17921 kPa	464.99

Reference: the NIST ThermoML archive (doi:10.1021/je300148f)
